Measurements as given in patent publication US6472391B2, “Nitrogen-containing heterocyclic compounds” (Millennium Pharmaceuticals, Inc., priority 1996, dated 2002).

SMILES | melting point
COc1cc2ncnc(N3CCN(C(=O)Nc4c(C(C)C)cccc4C(C)C)CC3)c2cc1OC [Compound 31, N-(2,6-Diisopropylphenyl)-4-(6,7-dimethoxy-4-quinazolinyl)-1-piperazinecarboxamide] | 280 to 282 °C
COc1cc2ncnc(N3CCN(C(=O)Nc4cc(C(F)(F)F)cc(C(F)(F)F)c4)CC3)c2cc1OC [Compound 32, N-[3,5-Bis(trifluoromethyl)phenyl]-4-(6,7-dimethoxy-4-quinazolinyl)-1-piperazinecarboxamide] | 251 to 252 °C
COc1cc2ncnc(N3CCN(C(=O)Nc4ccccc4F)CC3)c2cc1OC [Compound 34, 4-(6,7-Dimethoxy-4-quinazolinyl)-N-(2-fluorophenyl)-1-piperazinecarboxamide] | 176 to 177 °C
COc1cc2ncnc(N3CCN(C(=O)Nc4cccc(F)c4)CC3)c2cc1OC [Compound 35, 4-(6,7-Dimethoxy-4-quinazolinyl)-N-(3-fluorophenyl)-1-piperazinecarboxamide] | 214 to 220 °C
COc1cc2ncnc(N3CCN(C(=O)Nc4ccc(F)cc4)CC3)c2cc1OC [Compound 36, 4-(6,7-Dimethoxy-4-quinazolinyl)-N-(4-fluorophenyl)-1-piperazinecarboxamide] | 198 to 202 °C
COc1cc2ncnc(N3CCN(C(=S)Nc4ccc(F)cc4)CC3)c2cc1OC [Compound 37, 4-(6,7-Dimethoxy-4-quinazolinyl)-N-(4-fluorophenyl)-1-piperazinethiocarboxamide] | 212 to 217 °C
COc1cc2ncnc(N3CCN(C(=O)Nc4ccccc4Cl)CC3)c2cc1OC [Compound 38, N-(2-Chlorophenyl)-4-(6,7-dimethoxy-4-quinazolinyl)-1-piperazinecarboxamide] | 186 to 187 °C
COc1cc2ncnc(N3CCN(C(=O)Nc4cccc(Cl)c4)CC3)c2cc1OC [Compound 39, N-(3-Chlorophenyl)-4-(6,7-dimethoxy-4-quinazolinyl)-1-piperazinecarboxamide] | 223 to 224 °C
COc1cc2ncnc(N3CCN(C(=O)Nc4ccc(Cl)cc4)CC3)c2cc1OC [Compound 40, N-(4-Chlorophenyl)-4-(6,7-dimethoxy-4-quinazolinyl)-1-piperazinecarboxamide] | 217 to 219 °C
COc1cc2ncnc(N3CCN(C(=S)NCc4ccc(Cl)cc4)CC3)c2cc1OC [Compound 42, N-(4-Chlorobenzyl)-4-(6,7-dimethoxy-4-quinazolinyl)-1-piperazinethiocarboxamide] | 218 to 220 °C
COc1cc2ncnc(N3CCN(C(=O)NS(=O)(=O)c4ccc(Cl)cc4)CC3)c2cc1OC [Compound 43, N-(4-Chlorobenzenesulfonyl)-4-(6,7-dimethoxy-4quinazolinyl)-1-piperazinecarboxamide] | 228 to 234 °C
COc1cc2ncnc(N3CCN(C(=O)Nc4cccc(Br)c4)CC3)c2cc1OC [Compound 44, N-(3-Bromophenyl)-4-(6,7-dimethoxy-4-quinazolinyl)-1-piperazinecarboxamide] | 221 to 222 °C
COc1cc2ncnc(N3CCN(C(=O)Nc4ccc(I)cc4)CC3)c2cc1OC [Compound 46, 4-(6,7-Dimethoxy-4-quinazolinyl)-N-(4-iodophenyl)-1-piperazinecarboxamide] | 238 to 242 °C
COc1cc2ncnc(N3CCN(C(=S)Nc4ccc(I)cc4)CC3)c2cc1OC [Compound 47, 4-(6,7-Dimethoxy-4-quinazolinyl)-N-(4-iodophenyl)-1-piperazinethiocarboxamide] | 129 to 132 °C
COc1cc2ncnc(N3CCN(C(=O)Nc4ccc(Cl)cc4C(F)(F)F)CC3)c2cc1OC [Compound 48, N-[4-Chloro-2-(trifluoromethyl)phenyl]-4-(6,7-dimethoxy-4-quinazolinyl)-1-piperazinecarboxamide] | 189 to 190 °C
COc1cc2ncnc(N3CCN(C(=O)Nc4ccc(Cl)c(C(F)(F)F)c4)CC3)c2cc1OC [Compound 49, N-[4-Chloro-3-(trifluoromethyl)phenyl]-4-(6,7-dimethoxy-4-quinazolinyl)-1-piperazinecarboxamide] | 237 to 238 °C
COc1cc2ncnc(N3CCN(C(=O)Nc4ccc(F)cc4F)CC3)c2cc1OC [Compound 50, N-(2,4-Difluorophenyl)-4-(6,7-dimethoxy-4-quinazolinyl)-1-piperazinecarboxamide] | 174 to 175 °C
COc1cc2ncnc(N3CCN(C(=O)Nc4cc(F)ccc4F)CC3)c2cc1OC [Compound 51, N-(2,5-Difluorophenyl)-4-(6,7-dimethoxy-4-quinazolinyl)-1-piperazinecarboxamide] | 187 to 189 °C
COc1cc2ncnc(N3CCN(C(=O)Nc4c(Cl)cccc4Cl)CC3)c2cc1OC [Compound 52, N-(2,6-Dichlorophenyl)-4-(6,7-dimethoxy-4-quinazolinyl)-1-piperazinecarboxamide] | 202 to 207 °C
COc1cc2ncnc(N3CCN(C(=O)Nc4ccc(Cl)cc4Cl)CC3)c2cc1OC [Compound 53, N-(2,4-Dichlorophenyl)-4-(6,7-dimethoxy-4-quinazolinyl)-1-piperazinecarboxamide] | 166 to 167 °C

SMILES | melting point
COc1cc2ncnc(N3CCN(C(=O)Nc4cc(Cl)cc(Cl)c4)CC3)c2cc1OC [Compound 55, N-(3,5-Dichlorophenyl)-4-(6,7-dimethoxy-4-quinazolinyl)-1-piperazinecarboxamide] | 139 to 140 °C
COc1ccc(NC(=O)N2CCN(c3ncnc4cc(OC)c(OC)cc34)CC2)cc1 [Compound 56, 4-(6,7-Dimethoxy-4-quinazolinyl)-N-(4-methoxyphenyl)-1-piperazinecarboxamide] | 221 to 223 °C
CCOc1ccc(NC(=O)N2CCN(c3ncnc4cc(OC)c(OC)cc34)CC2)cc1 [Compound 57, 4-(6,7-Dimethoxy-4-quinazolinyl)-N-(4-ethoxyphenyl)-1-piperazinecarboxamide] | 165 to 166 °C
CCCCOc1ccc(NC(=O)N2CCN(c3ncnc4cc(OC)c(OC)cc34)CC2)cc1 [Compound 58, N-(4-Butoxyphenyl)-4-(6,7-dimethoxy-4-quinazolinyl)-1-piperazinecarboxamide] | 213 to 214 °C
COc1cc2ncnc(N3CCN(C(=O)Nc4ccc(OC(F)(F)F)cc4)CC3)c2cc1OC [Compound 59, 4-(6,7-Dimethoxy-4-quinazolinyl)-N-[4-(trifluoromethoxy)phenyl]-1-piperazinecarboxamide] | 204 to 205 °C
COc1cc2ncnc(N3CCN(C(=S)Nc4ccc(Oc5ccccc5)cc4)CC3)c2cc1OC [Compound 61, 4-(6,7-Dimethoxy-4-quinazolinyl)-N-(4-phenoxyphenyl)-1-piperazinethiocarboxamide] | 242 to 243 °C
COc1cc2ncnc(N3CCN(C(=S)Nc4ccc(Oc5ccc([N+](=O)[O-])cc5)cc4)CC3)c2cc1OC [Compound 62, 4-(6,7-Dimethoxy-4-quinazolinyl)-N-[4-(4-nitrophenoxy)phenyl]-1-piperazinethiocarboxamide] | 204 to 207 °C
COc1cc2ncnc(N3CCN(C(=S)Nc4ccc(OCc5ccccc5)cc4)CC3)c2cc1OC [Compound 63, N-(4-Benzyloxyphenyl)-4-(6,7-dimethoxy-4-quinazolinyl)-1-piperazinethiocarboxamide] | 103 to 105 °C
COc1ccc(NC(=O)N2CCN(c3ncnc4cc(OC)c(OC)cc34)CC2)c(OC)c1 [Compound 64, N-(2,4-Dimethoxyphenyl)-4-(6,7-dimethoxy-4-quinazolinyl)-1-piperazinecarboxamide] | 187 to 188 °C
COc1ccc(OC)c(NC(=O)N2CCN(c3ncnc4cc(OC)c(OC)cc34)CC2)c1 [Compound 65, N-(2,5-Dimethoxyphenyl)-4-(6,7-Dimethoxy-4-quinazolinyl)-1-piperazinecarboxamide] | 215 to 217 °C
COc1ccc(NC(=S)N2CCN(c3ncnc4cc(OC)c(OC)cc34)CC2)cc1OC [Compound 66, N-(3,4-Dimethoxyphenyl)-4-(6,7-dimethoxy-4-quinazolinyl)-1-piperazinethiocarboxamide] | 174 to 176 °C
COc1cc(NC(=S)N2CCN(c3ncnc4cc(OC)c(OC)cc34)CC2)cc(OC)c1 [Compound 67, N-(3,5-Dimethoxyphenyl)-4-(6,7-dimethoxy-4-quinazolinyl)-1-piperazinethiocarboxamide] | 240 to 241 °C
COc1cc2ncnc(N3CCN(C(=S)Nc4ccc5c(c4)OCO5)CC3)c2cc1OC [Compound 68, 4-(6,7-Dimethoxy-4-quinazolinyl)-N-(3,4-methylenedioxyphenyl)-1-piperazinethiocarboxamide] | 207 to 211 °C
COc1cc2ncnc(N3CCN(C(=O)Nc4ccc(SC)cc4)CC3)c2cc1OC [Compound 69, 4-(6,7-dimethoxy-4-quinazolinyl)-N-(4-methylthiophenyl)-1-piperazinecarboxamide] | 231 to 233 °C
COc1cc2ncnc(N3CCN(C(=S)Nc4ccc(Sc5ccc([N+](=O)[O-])cc5)cc4)CC3)c2cc1OC [Compound 70, 4-(6,7-Dimethoxy-4-quinazolinyl)-N-[4-(4-nitrophenylthio)phenyl]-1-piperazinethiocarboxamide] | 144 to 146 °C
CCN(CC)c1ccc(NC(=S)N2CCN(c3ncnc4cc(OC)c(OC)cc34)CC2)cc1 [Compound 72, N-(4-Diethylaminophenyl)-4-(6,7-dimethoxy-4-quinazolinyl)-1-piperazinethiocarboxamide] | 147 to 148 °C
COc1cc2ncnc(N3CCN(C(=S)Nc4ccc(N=Nc5ccc(N(C)C)cc5)cc4)CC3)c2cc1OC [Compound 74, 4-(6,7-Dimethoxy-4-quinazolinyl)-N-[4-(4-dimethylaminophenylazo)phenyl]-1-piperazinethiocarboxamide] | 148 to 149 °C
COc1cc2ncnc(N3CCN(C(=O)Nc4ccccc4[N+](=O)[O-])CC3)c2cc1OC [Compound 75, 4-(6,7-Dimethoxy-4-quinazolinyl)-N-(2-nitrophenyl)-1-piperazinecarboxamide] | 217 to 218 °C
COc1cc2ncnc(N3CCN(C(=O)Nc4cccc([N+](=O)[O-])c4)CC3)c2cc1OC [Compound 76, 4-(6,7-Dimethoxy-4-quinazolinyl)-N-(3-nitrophenyl)-1-piperazinecarboxamide] | 123 to 125 °C
